Values of other authors as cited in patent US12171766B2, “Methods of treating patients suffering from brain injury and methods of increasing the value of the extended Glasgow Outcome Scale of patients suffering from brain injury” (VERINOS OPERATIONS GMBH, priority 2021, dated 2024).

Test system: animal models of TBI
Settings: mice, Terpolilli et al. 2009; cited from earlier work

SMILES: CC(O)C(O)C1CNc2nc(N)nc(N)c2N1 [Ronopterin, 4-Amino-(6R,S)-5,6,7,8-tetrahydro-L-biopterin]
- effect in animal models of TBI: beneficial
